Read-outs that look alike come from different tables or passages of the source.
Legend:
[1] = tested on: lens oxidative stress after UV irradiation; assay: UV-induced cataract model: lens GSH and 4-HNE after UV irradiation; format: in vivo, Sprague Dawley rats
Text: Exposure to UV irradiation is another major risk factor of cataractogenesis. UV-irradiation induces ROS, which results in a rapid loss of reduced lens gluthione (GSH), the major antioxidant in the lens, followed several weeks later by subsequent lens opacification. For this study, young female Sprague Dawley rats were divided into five equal groups. One group served as the non-irradiated control group, while the second group served as the untreated irradiated control group. The third group received topical Optixcare carbomer vehicle containing 3% JHX-4 (4-(5-hydroxypyrimidin-2-yl)-N,N-dimethyl-3,5-dioxopiperazine-1-sulfonamide (99% pure by HPLC), the fourth received the present antioxidant eye drops composition, prepared as described above and referred to as topical Optixcare EH, and the fifth group received 1 mL of the oral Ocu-GLO™ by gavage, as described above. Treatments began 3 days prior to irradiation and continued until termination of the experiment. Prior to irradiation, each rat was anesthetized by intraperitoneal (i.p.) injection of a mixture of 60 mg/kg of ketamine and 10 mg/kg of xylazine, and the right eye was dilated with 1% tropicamide ophthalmic solution. The contralateral eye was covered with an eye patch that was held in place with black tape. […] Protein levels in an aliquot of the supernatant were measured according to Bradford Assay. Another aliquot was deproteinized with equal volume of 20% TCA and the GSH levels in the deproteinized supernatants were measured at 412 nm according to the DTNB method.
To confirm that the reduced GSH levels after UV exposure were linked to increased levels of ROS, the lenticular levels of the oxidized membrane lipid 4-hydroxynonenol (4-HNE) were determined using a competitive ELISA in the remaining homogenate supernatants by using the OxiSelect HINE Adduct Competitive ELISA Assay Kit (Cell Biolabs, Inc., San Diego, Calif.) according to the manufacturer's instructions.

[2] = tested on: neural retina oxidative stress / photoreceptor layer; assay: Light-induced retinal degeneration in dark adapted rats; format: in vivo, Wistar rats
Text: In the neural retina of dark adapted rats, exposure to light also results in the generation of ROS, iron dysregulation, and the release of iron from ferritin. In this animal model of age-related macular degeneration (AMD), Wistar rats were either orally treated with diet containing 0.05% of the multifunctional antioxidant JHX-4 or topically treated b.i.d. with Optixcare EH, with treatment beginning at the onset of two weeks of dark adaption.
As previously described in detail by Randazzo et al. (PLoS One, 2011, 6(7), p. e21926), groups containing twelve 4-5-week-old male Wistar rats receiving either normal rat chow (untreated), normal rat chow and topically treated with Optixcare EH b.i.d., or oral diet containing 0.05% of the multifunctional antioxidant JHX-4 were dark adapted for two weeks. Rats from each group were then individually placed into acrylic, flat bottom rodent restraints (Plas-labs, Inc., Lansing Mich.) in a light box apparatus and exposed for three hours to 1000 1× of cool white fluorescent lights (Lights of America, Los Angeles, Calif.). An additional group of non-treated rats were also placed into the light box apparatus for three hours, but not exposed to light (non-light-damaged rats, NLD). Immediately following light exposure, 8 light-damaged (LD) rats from each group and 8 NLD rats were immediately euthanized and the neural retinas were carefully dissected from the enucleated eye and frozen on dry ice for subsequent analysis. Subsequently, the thawed retinas were homogenized in lysis buffer for ELISA determinations using 4-HNE-His Adduct and Nitrotyrosine ELISA Kits. Additional thawed retinas were homogenized in RIPA buffer containing Halt Protease and Phosphatase Inhibitor Cocktail for western blot analysis of thioredoxin (TRx) and thioredoxin reductase (TRxR) expression levels. Protein samples were separated by SDS-PAGE and transferred onto nitrocellulose membranes. After blocking the membrane with 5% dry milk in 0.1% TBS-T, the membranes were then incubated overnight at 4° C. with the primary antibodies anti-TRx (1:1000 dilution) or anti-TRxR (1:2000 dilution). Subsequently, after washing with TBS-T, the membranes were incubated with a HRP-conjugated secondary antibody for 1 hour. The protein bands were visualized by chemiluminescence and exposure to x-ray film. Finally, the membranes were re-probed with antibody against GAPDH as an internal control. All visualized protein levels were quantified using the NIH ImageJ program available online at rsbweb.nih.gov/ij/.
Therefore, topical administration of Optixcare EH to light-exposed dark-adapted rats was not anticipated to result in any significant protection of retinal oxidative stress compared to the oral administration of the multifunctional antioxidant JHX-4. […] ROS and free radicals generated by retinal exposure to acute excessive light are also mediated by the thioredoxin (TRx)/thioredoxin reductase (TRxR) defense system. Therefore, the expression levels of both TRx and TRxR in the neural retinas of these rats were also examined.
The reduction of oxidative stress by JHX-4 and Optixcare EH was confirmed by histological measurements of the photoreceptor layers. After light exposure as described above, select rats in each group were returned to the dark environment for 7 additional days. Each rat was then euthanized by carbon dioxide asphyxiation, and the dorsal ventral orientation of each eye was marked with a cautery tool. […]

[3] = tested on: human RPE19 cells; set-up: unit of the concentration uncertain; details: cited from earlier work
[4] = after 3 hours light exposure, ELISA

SMILES | lenticular 4-HNE levels vs untreated rats exposed to UV irradiation (FIG. 4) ([1]; UV exposed lenses, competitive ELISA) | 4-HNE lens levels, UV exposed vs unexposed contralateral eyes ([1]; competitive ELISA) | lens GSH levels, UV irradiated eye vs unexposed contralateral lens (FIG. 3) ([1]; pretreated 3 days, two days after 15 minutes UV irradiation) | photoreceptor layer (outer nuclear layer thickness), histology ([2]; 7 days in the dark after light exposure) | 4-HNE-histidine adduct levels in the neural retina (FIG. 5A) [2, 4] | nitrotyrosine adduct levels in the neural retina (FIG. 5B) [2, 4] | expression of thioredoxin (TRx) in the neural retina (FIG. 6A) ([2]; light exposed rats, western blot) | expression of thioredoxin reductase (TRxR) in the neural retina (FIG. 6B) ([2]; light exposed rats, western blot, p<0.05) | reduction of in vitro proliferation of human RPE19 cells ([3]; 50 (unit uncertain)) [%] | reduction of in vitro proliferation of human RPE19 cells ([3]; 100 (unit uncertain)) [%]
CN(C)S(=O)(=O)N1CC(=O)N(c2ncc(O)cn2)C(=O)C1 [JHX-4, 4-(5-hydroxypyrimidin-2-yl)-N,N-dimethyl-3,5-dioxopiperazine-1-sulfonamide] | significantly lower | statistically similar | not significantly lower | only slightly decreased | neither oxidative marker significantly increased | neither oxidative marker significantly increased | reduced | significantly lowered | – | –
Oc1ccc(C=Cc2cc(O)cc(O)c2)cc1 [resveratrol] | – | – | – | – | – | – | – | – | 10 | 25

— patent US9173915B1, “Antioxidant eye drops” (priority 2014, dated 2015)
